# Laboratory results reported in patent US9006191B2, “Silencing of polo-like kinase expression using interfering RNA” (Protiva Biotherapeutics, Inc., priority 2007, dated 2015).
# Tested on: IFIT1 mRNA, serum IFNα
# Test: In vivo immune stimulation assay in Balb/c mice (IFIT1 mRNA, serum IFNα)
# Conditions: SNALP-formulated siRNA IV, 4-6 h
row,Substance,serum IFNα / serum cytokine response
1,"U(S)-ApoB1: ApoB-1 siRNA with 2′OMe-modified sense strand, SEQ ID NO:284/285 (sense GNCANCACACNGAANACCAAN; antisense AUUGGUAUUCAGUGUGAUGACAC; 2'-OMe on sense strand, chemistry not fully specified)",no measurable serum cytokine response

# Same assay, conditions: SNALP-formulated siRNA IV, 4 h
row,Substance,IFIT1 mRNA induction in liver and spleen
1,"U(S)-ApoB1: ApoB-1 siRNA with 2′OMe-modified sense strand, SEQ ID NO:284/285 (sense GNCANCACACNGAANACCAAN; antisense AUUGGUAUUCAGUGUGAUGACAC; 2'-OMe on sense strand, chemistry not fully specified)",induction of IFN-inducible p56 IFIT1 mRNA in the liver and spleen

# Tested on: HT29 cells
# Test: HT29 cell viability assay (CellTiter-Blue)
# Format: cell-based, human
# Conditions: HT29 cells, SNALP-formulated siRNA at a range of siRNA concentrations, viability at 72 h relative to PBS
# Procedure: (§1) Various PLK-1 siRNAs were formulated as SNALP (“2:40” SNALP formulation: 2% PEG-cDMA; 40% DLinDMA; 10% DSPC; and 48% cholesterol) and evaluated for their inhibitory effects on cell growth in vitro. HT29 (human colon adenocarcinoma) or Neuro2A (mouse neuroblastoma) cells were treated with various PLK-1 SNALP at a range of siRNA concentrations and their effect on cell viability was evaluated. Viability of cell cultures is expressed as % viability relative to PBS treated controls.
# Additional PLK-1 siRNA molecules were formulated as SNALP (“2:40” SNALP formulation: 2% PEG-cDMA; 40% DLinDMA; 10% DSPC; and 48% cholesterol) and evaluated for their inhibitory effects on cell growth in vitro. HT29 or Neuro2A cells were plated in triplicate at 5000 cells/well and 2500 cells/well, respectively. PLK-1 SNALP dosages were as follows: 25 nM; 5 nM; and 1 nM. Cell viability analysis was performed at 72 hours following transfection. SNALP containing a non-targeting (GFP) siRNA were used as a negative control. […]
# PLK-1 siRNA molecules containing 2′-O-methyl (2′OMe) nucleotides at selective positions within the double-stranded region of the siRNA duplex were formulated as SNALP (“2:40” SNALP formulation: 2% PEG-cDMA; 40% DLinDMA; 10% DSPC; and 48% cholesterol) and evaluated for their inhibitory effects on cell growth in vitro. HT29 cells were plated in triplicate at 5000 cells/well. Cell viability analysis was performed at 72 hours following transfection with a range of PLK-1 SNALP dosages. SNALP containing a non-targeting (GFP) siRNA were used as a negative control.
# Cell viability assays. […] Cell viability analysis was performed at 72 hours following transfection with a range of PLK-1 SNALP dosages.
row,Substance,cell viability / killing of human tumor cells
1,"PLK1242: siRNA to human PLK-1, SEQ ID NO:27/28 (chain 1 GGUGGACUAUUCGGACAAG; chain 2 CUUGUCCGAAUAGUCCACC; listed as RNA, chemistry not given here)",effective at killing human tumor cells
2,"PLK694: siRNA to human PLK-1, SEQ ID NO:9/10 (chain 1 GUGGAUGUGUGGUCCAUUG; chain 2 CAAUGGACCACACAUCCAC; listed as RNA, chemistry not given here)",effective at killing human tumor cells
3,"PLK1424 U4/GU: 2′OMe-modified PLK1424 siRNA, SEQ ID NO:57/54 (chain 1 AGANCACCCNCCUNAAANANN; chain 2 UAUUUAANGAGGGUGANCUNN; 2'-OMe modifications, further chemistry not given here)",as potent as the unmodified PLK1424 sequence
4,"PLK1425 3/5: 2′OMe-modified PLK1425 siRNA, SEQ ID NO:67/68 (chain 1 GANCACCCUCCUNAAANAUNN; chain 2 AUAUUUAANGAGGGUGANCNN; 2'-OMe modifications, chemistry not fully specified)",more potent than the unmodified PLK1425 sequence
5,"PLK1424 U3/GU: 2′OMe-modified PLK1424 siRNA, SEQ ID NO:53/54 (chain 1 AGANCACCCNCCUNAAAUANN; chain 2 UAUUUAANGAGGGUGANCUNN; 2'-OMe modifications, further chemistry not given here)",as potent as the unmodified PLK1424 sequence
6,"PLK1081: siRNA to human PLK-1, SEQ ID NO:17/18 (chain 1 CCAGUGGUUCGAGAGACAG; chain 2 CUGUCUCUCGAACCACUGG; listed as RNA, chemistry not given here)","inhibited the growth of human tumor cells, but at higher siRNA concentrations"
7,"PLK1229: siRNA to human PLK-1, SEQ ID NO:21/22 (chain 1 GGGUCAGCAAGUGGGUGGA; chain 2 UCCACCCACUUGCUGACCC; listed as RNA, chemistry not given here)",effective at killing human tumor cells
8,"PLK832: siRNA to human PLK-1, SEQ ID NO:13/14 (chain 1 GCCGCCUCCCUCAUCCAGA; chain 2 UCUGGAUGAGGGAGGCGGC; listed as RNA, chemistry not given here)",effective at killing human tumor cells
9,"PLK1195: siRNA to human PLK-1, SEQ ID NO:19/20 (chain 1 GAGGCUGAGGAUCCUGCCU; chain 2 AGGCAGGAUCCUCAGCCUC; listed as RNA, chemistry not given here)",effective at killing human tumor cells
10,"PLK1556: siRNA to human PLK-1, SEQ ID NO:31/32 (chain 1 GCGCCAUCAUCCUGCACCU; chain 2 AGGUGCAGGAUGAUGGCGC; listed as RNA, chemistry not given here)",effective at killing human tumor cells
11,"PLK1233: siRNA to human PLK-1, SEQ ID NO:25/26 (chain 1 CAGCAAGUGGGUGGACUAU; chain 2 AUAGUCCACCCACUUGCUG; listed as RNA, chemistry not given here)",effective at killing human tumor cells
12,"PLK772: siRNA to human PLK-1, SEQ ID NO:11/12 (chain 1 GAGACCUACCUCCGGAUCA; chain 2 UGAUCCGGAGGUAGGUCUC; listed as RNA, chemistry not given here)",effective at killing human tumor cells
13,"PLK773 G/GU: 2′OMe-modified PLK773 siRNA, SEQ ID NO:64/63 (chain 1 AGACCUACCUCCGGAUCAANN; chain 2 UUGAUCCGGAGGUAGGUCUNN; chain 1: 2'-O-methyl at 2, 13, other sugars, backbone and the base at N not given here; chain 2: 2'-O-methyl at 9, 12, 17, other sugars, backbone and the base at N not given here; 3' NN overhangs: dT or U ribonucleotide)",more potent than the unmodified PLK1424 sequence
14,"PLK1232: siRNA to human PLK-1, SEQ ID NO:23/24 (chain 1 UCAGCAAGUGGGUGGACUA; chain 2 UAGUCCACCCACUUGCUGA; listed as RNA, chemistry not given here)",effective at killing human tumor cells
15,"PLK1345: siRNA to human PLK-1, SEQ ID NO:29/30 (chain 1 GACAGCCUGCAGUACAUAG; chain 2 CUAUGUACUGCAGGCUGUC; listed as RNA, chemistry not given here)","inhibited the growth of human tumor cells, but at higher siRNA concentrations"

# Tested on: Neuro2A cells
# Test: Neuro2A cell viability assay (CellTiter-Blue)
# Format: cell-based
# Conditions: mouse Neuro2A cells, SNALP-formulated siRNA, viability at 72 h relative to PBS
# Procedure: as §1
# Additional PLK-1 siRNA molecules were formulated as SNALP (“2:40” SNALP formulation: 2% PEG-cDMA; 40% DLinDMA; 10% DSPC; and 48% cholesterol) and evaluated for their inhibitory effects on cell growth in vitro. HT29 or Neuro2A cells were plated in triplicate at 5000 cells/well and 2500 cells/well, respectively. PLK-1 SNALP dosages were as follows: 25 nM; 5 nM; and 1 nM. Cell viability analysis was performed at 72 hours following transfection. SNALP containing a non-targeting (GFP) siRNA were used as a negative control.
# Additional PLK-1 siRNA molecules were formulated as SNALP (“2:40” SNALP formulation: 2% PEG-cDMA; 40% DLinDMA; 10% DSPC; and 48% cholesterol) and evaluated for their inhibitory effects on cell growth in vitro. HT29 or Neuro2A cells were plated in triplicate at 5000 cells/well and 2500 cells/well, respectively. PLK-1 SNALP dosages were as follows: 30 nM; 10 nM; and 3.3 nM. Cell viability analysis was performed at 72 hours following transfection. SNALP containing a non-targeting (GFP) siRNA were used as a negative control.
row,Substance,cell viability / inhibition of cell growth
1,"mPLK1424: siRNA to mouse PLK-1, SEQ ID NO:35/36 (chain 1 AGAUCACUCUCCUCAACUA; chain 2 UAGUUGAGGAGAGUGAUCU; listed as RNA, chemistry not given here)",most active mouse-specific siRNA sequences
2,"mPLK1425: siRNA to mouse PLK-1, SEQ ID NO:37/38 (chain 1 GAUCACUCUCCUCAACUAU; chain 2 AUAGUUGAGGAGAGUGAUC; listed as RNA, chemistry not given here)",most active mouse-specific siRNA sequences
3,"mPLK1608: siRNA to mouse PLK-1, SEQ ID NO:45/46 (chain 1 GGACCACACCAAACUUAUC; chain 2 GAUAAGUUUGGUGUGGUCC; listed as RNA, chemistry not given here)",most active mouse-specific PLK-1 siRNA sequences
4,"mPLK1607: siRNA to mouse PLK-1, SEQ ID NO:43/44 (chain 1 AGGACCACACCAAACUUAU; chain 2 AUAAGUUUGGUGUGGUCCU; listed as RNA, chemistry not given here)",most active mouse-specific PLK-1 siRNA sequences
5,"mPLK1668: siRNA to mouse PLK-1, SEQ ID NO:49/50 (chain 1 GAGGGACUUCCAAACGUAC; chain 2 GUACGUUUGGAAGUCCCUC; listed as RNA, chemistry not given here)",most active mouse-specific PLK-1 siRNA sequences
6,"PLK1229: siRNA to human PLK-1, SEQ ID NO:21/22 (chain 1 GGGUCAGCAAGUGGGUGGA; chain 2 UCCACCCACUUGCUGACCC; listed as RNA, chemistry not given here)",most potent human/mouse cross-reactive siRNA molecules
7,"PLK1232: siRNA to human PLK-1, SEQ ID NO:23/24 (chain 1 UCAGCAAGUGGGUGGACUA; chain 2 UAGUCCACCCACUUGCUGA; listed as RNA, chemistry not given here)",most potent human/mouse cross-reactive siRNA molecule
8,"PLK1345: siRNA to human PLK-1, SEQ ID NO:29/30 (chain 1 GACAGCCUGCAGUACAUAG; chain 2 CUAUGUACUGCAGGCUGUC; listed as RNA, chemistry not given here)",effective at inhibiting the growth of mouse Neuro2A cells at higher siRNA concentrations
